Ring closure, isolated yield, ring closure, yield after HPLC and IC50 data for twelve compounds are collected here from patent US8637523B2, “Compounds for the reduction of beta-amyloid production” (Bristol-Myers Squibb Company, priority 2010, dated 2014).

The conditions of data set [1]: from CC(C)(C)OC(=O)N(CCOc1cc(N)ccc1C#N)CCc1nc(Cl)nc2c1CCC2c1ccc(F)cc1; cn_pd bond; 13-membered ring; Pd(OAc)2/Xantphos/Cs2CO3; 1,4-dioxane; 6.0 mM; 110.0 °C.
In data set [2] the test system is Aβ42. Kind of data set: Cellular assay for inhibition of Aβ1-42 production (H4 APP751 SWE clone 8.20). Format: cell-based. The following applies: H4 APP751 SWE clone 8.20 cells, 19 h incubation. The essentials:
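Viewlux signal read-out; IC50 by curve fit. Sandwich: 565 anti-Aβ42 neoepitope (Wallac conjugate, 0.8 ng/well) + 26D6 anti-N-terminus (APC, 75 ng/well), in Tris-HCl 40 mM pH 7.4/0.2% BSA, o/n 4 °C. Cells exposed to compound 19 h, 37 °C, 5% CO2.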

Setting [3] is: unit inferred, read-out: Activity Rating (Aβ42 cellular IC50), numeric value.
[4] abbreviates: read-out: Activity Rating (Aβ42 cellular IC50), class symbol.

Values joined by “and” are separate entries in the source; they are usually repeats but may differ in a detail not shown here. Identical values can stand only once. Like-named read-outs stand apart in the source and are kept apart here. A value given as a limit tells only on which side of the number the result lay.

In turn, `CC(C)(C)OC(=O)N1CCOc2cc(ccc2C#N)Nc2nc(c3c(n2)C(c2ccc(F)cc2)CC3)CC1` (stereo not drawn) returned a ring closure, isolated yield in data set [1] of 21.4%.

Under “rcm bond, 14-membered ring, Hoveyda-Grubbs II, 1,2-dichloroethane, 0.975 mM, 100.0 °C”, `Clc1cn(-c2ccc3cc2OC/C=C/CCNc2nc(nc4c2CCC4c2ccccc2)N3)cn1` (stereo not drawn) displayed a ring closure, yield after HPLC of 27.7%.

As to `Clc1cn(-c2ccc3cc2OCCCNC2=NC(=N3)NC3=C2CCC3c2ccccc2)cn1` (stereo not drawn), the ring closure, yield after HPLC (cn_pd bond, 12-membered ring, Pd(dba)3 (so in the source)/Xantphos/Cs2CO3, 1,4-dioxane, 30.7 mM, 110.0 °C) was 2.83% and 1.88%.

For the compound `Cc1ncn(-c2ccc3cc2OCC(O)CCNc2nc(nc4c2CCC4c2ccc(F)cc2)N3)n1` (mixture of isomers), the ring closure, yield after HPLC (from Cc1ncn(-c2ccc(N)cc2OCC(O)CCNc2nc(Cl)nc3c2CCC3c2ccc(F)cc2)n1, cn_pd bond, 13-membered ring, Pd(OAc)2/Xantphos/Cs2CO3, dioxane, 100.0 mM, 100.0 °C) is 24.4%.

Under “from C=CCOc1cc(Nc2nc3c(c(N(C)CC=C)n2)CN(C)CC3c2ccc(F)cc2)ccc1C#N, rcm bond, 13-membered ring, Hoveyda-Grubbs II, 1,2-dichloroethane, 3.0 mM, 90.0 °C”, `CN1Cc2c(nc3nc2N(C)CC=CCOc2cc(ccc2C#N)N3)C(c2ccc(F)cc2)C1` (racemic) returned a ring closure, yield after HPLC of 4.95%.

In general, IC50 refers to the point on the concentration scale where inhibition reaches its midpoint. With “(11Z)-7-(4-chloro-1H-imidazol-1-yl)-18-phenyl-10,13,14,16,17,18-hexahydro-15,2-(azeno)-8,4-(metheno)cyclopenta[h][1,6,10,12]oxatriazacycloheptadecine [Example 1A]”, in data set [2] (setting [3]), the IC50 amounted to 3.9 nM.

Regarding “(11Z)-7-(4-chloro-1H-imidazol-1-yl)-18-phenyl-10,13,14,16,17,18-hexahydro-15,2-(azeno)-8,4-(metheno)cyclopenta[h][1,6,10,12]oxatriazacycloheptadecine [Example 1B]”, the IC50 in data set [2] (setting [4]) is 10 to 100 nM.

As to “(11Z)-7-cyano-18-phenyl-10,13,14,16,17,18-hexahydro-15,2-(azeno)-8,4-(metheno)cyclopenta[h][1,10,12]oxadiazacycloheptadecine [Example 36A]”, the IC50 in data set [2] (setting [4]) was in the range of 100 to 1000 nM.

With “(11Z)-18-(2,4-difluorophenyl)-7-(3-methyl-1H-1,2,4-triazol-1-yl)-10,13,14,16,17,18-hexahydro-15,2-(azeno)-8,4-(metheno)cyclopenta[h][1,6,10,12]oxatriazacycloheptadecine [Example 51A]”, the IC50 in data set [2] (setting [4]) was below 10 nM.

As for “(11Z)-18-(2,4-difluorophenyl)-7-(3-methyl-1H-1,2,4-triazol-1-yl)-10,13,14,16,17,18-hexahydro-15,2-(azeno)-8,4-(metheno)cyclopenta[h][1,6,10,12]oxatriazacycloheptadecine [Example 51B]”, the IC50 in data set [2] (setting [4]) was in the range of 10 to 100 nM.

On to “(11Z)-18-(2,4-difluorophenyl)-7-(5-methyl-1H-1,2,4-triazol-1-yl)-10,13,14,16,17,18-hexahydro-15,2-(azeno)-8,4-(metheno)cyclopenta[h][1,6,10,12]oxatriazacycloheptadecine [Example 53A]”, for which the IC50 in data set [2] (setting [4]) is below 10 nM.

With “(11Z)-18-(2,4-difluorophenyl)-7-(5-methyl-1H-1,2,4-triazol-1-yl)-10,13,14,16,17,18-hexahydro-15,2-(azeno)-8,4-(metheno)cyclopenta[h][1,6,10,12]oxatriazacycloheptadecine [Example 53B]”, in data set [2] (setting [3]), the IC50 was found to be 17 nM.
